Data set [1] in a line: Hygroscopicity test by dynamic vapor sorption. It is filed as physicochemical. Particulars: DVS, 25° C. The procedure: The hygroscopicity disclosed herein is detected on a DVS INT-Std dynamic vapor and gas absorption analyzer (England Surface Measurement Systems Company) under the humidity ranged from 0% to 95%, the airflow rate is 200 mL/min, the temperature is 25° C., and one test point is provided per rising 5% humidity.
An appropriate amount of test sample was sampled, and the hygroscopicity of the test sample was detected on a dynamic vapor sorption instrument. The experiment results are as shown in table 7; the dynamic vapor sorption profiles of the crystalline form I of the compound represented by Formula (VI) is substantial the same as shown in FIG. 19.
The hygroscopic features and definition of hygroscopic weight gain are summarized in table 8 (deriving from Chinese Pharmacopoeia 2010, appendix XIX J: Guideline on pharmaceutical hygroscopicity test, test conditions: 25° C.±1° C., Relative Humidity 80%).

The target in the next data set is T1, CRTH2 receptor (Homo sapiens, UniProt Q9Y5Y4).
T1 construct: expressed in transfected cells; host or cells: CHO-K1/G cells
T1 sequence (Q9Y5Y4 1-395): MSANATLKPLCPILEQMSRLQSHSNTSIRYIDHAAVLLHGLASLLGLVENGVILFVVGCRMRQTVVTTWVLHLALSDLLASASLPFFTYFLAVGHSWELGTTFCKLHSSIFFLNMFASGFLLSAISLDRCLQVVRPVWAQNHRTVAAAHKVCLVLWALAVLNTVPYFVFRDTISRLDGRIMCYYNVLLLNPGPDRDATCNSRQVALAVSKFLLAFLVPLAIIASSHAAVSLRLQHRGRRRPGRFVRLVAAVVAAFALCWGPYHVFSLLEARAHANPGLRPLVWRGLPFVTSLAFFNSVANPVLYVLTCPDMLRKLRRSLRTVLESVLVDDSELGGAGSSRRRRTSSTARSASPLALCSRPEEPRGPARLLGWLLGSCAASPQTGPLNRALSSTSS
The experiment in a line: FLIPR detection of inhibitory activity against CRTH2 (CHO-K1/G cells, PGD2 as agonist). It is filed as cell-based. Particulars: CHO-K1/G cells with stable expression of CRTH2 receptor, PGD2 at EC80, FLIPR. The method, then: The test compound was weighed accurately and then dissolved in a suitable amount of DMSO to prepare a stock solution at a concentration of 10 mM; after clear and transparent, the stock solution was subpackaged and cryostoraged at −20° C. for use. Before testing, the test compound was diluted with balanced salt solution (HBSS buffer, containing 4-(2-hydroxyethyl)piperazine-1-ethanesulfonicacid) at a concentration of 20 mM) to 5 times testing concentration.
CHO-K1/G cells with stable expression of CRTH2 receptor were prepared to 5 times testing concentration and seeded into 384-microwell plate, and incubated in an incubator at 37° C./5% CO2. After incubating for 18 hours, to the cells in 384-microwell plate was added 20 μL of dye followed by the addition of 10 μL of prepared test compound solution. And then the cell plate was incubated in the incubator at 37° C./5% CO2 for 1 hour, at last which was balanced at rt for 15 min. After adding 12.5 μL of positive agonist (PGD2) at a concentration of 5 times EC80 to each well of the cell plate, the RFU (fluorescence intensity) value of the test compound was detected.
The data were recorded from ScreenWorks (version 3.1), and collected and analyzed by using Excel and GraphPad Prism 6 software to calculate the values of IC50.

A further data set can be described thus: Detection of PK in rats. Particulars: rat, plasma. It is filed as in vivo. The procedure: The analysis was performed using a 4000 QTRAPP series LC/MS/MS mass spectrometer equipped with Agilent 1200 dual injection pumps, 1290 automatic sampler, column oven and ESI source, detecting by the negative ion MRM mode. Waters Xbridge C18 column was used in the analysis, and the mobile phase consisted of phase (A) (2 mM ammonium formate+0.1% aqueous ammonia solution) and phase (B) (2 mM ammonium formate+0.1% ammonia methanol solution), the flow rate was 0.4 mL/min, column temperature was 40° C., the amount of injection was 3 μL.
The male Beagle dogs or rats were administered with the compound of the invention by intravenous injection (0.4 mg/Kg) and gavage (1 mg/Kg) respectively, the blood samples were collected at the time point of 0.083, 0.25, 0.5, 1, 2, 4, 6, 8, 10, 24 and 36 h and then centrifuged to obtain plasma samples. The compound concentrations in plasma samples at various times were detected by LC/MS/MS (the method described in biologic example 3), the main pharmacokinetic parameters were calculated, and pharmacokinetic properties of the compounds of the invention in Beagle dogs or rats were evaluated.

In data set [2] the test system is eosinophilia in airway of Wistar rats induced by DK-PGD2. As to the kind of experiment: Eosinophilia in airway of Wistar rats induced by DK-PGD2, cell count in BALF. Also on record: The total number of white blood cells: unit not given here. Particulars: for inhibitory effects on the total number of white blood cells and the number of eosinophilic granulocytes: Wistar rats induced by DK-PGD2, compared with OC000459; for Eosinophilic granulocyte C (10^5/ml) / Eosinophilic granulocyte Inhibition rate / The total number of white blood cells: Wistar rats, 10 mg/Kg preventive dose 0.5 h before DK-PGD2, BALF after 24 h. It counts as in vivo. The procedure: Purpose: evaluation of inhibitory effects of the compounds on the total number of white blood cells and eosinophilia in airway of Wistar rats induced by DK-PGD2.
Process: observation on the drug therapeutic effect through preventive medication. Specific operation: After 0.5 h of administering a preventive dose, the administered group and model group were induced eosinophilia with 100 μL of DK-PGD2 by spray injection through airway of rats, the blank group was spray injected with a corresponding dose of normal saline; after 24 h of molding, the rats were killed by bloodletting from aorta abdominalis, exposing the airway and the chest, performing the trachea cannula, and the bronchial pulmonary alveoli were lavaged with 8 mL of 1% BSA in PBS in twice, the bronchoalveolar lavage fluids (BALF) were collected and placed in an ice-bath; after smear, the cells were differential counted. The concentration of DK-PGD2 mother liquor was 10 mg/mL, which was diluted 5 folds to get 2 mg/mL.

Data set [3] has as its system OVA (ovalbumin)-induced asthmatic model in rats. The experiment in a line: OVA (ovalbumin)-induced asthmatic model in rats, count of white blood cells in lung lavage. It is filed as in vivo. The note with it: OVA-sensitized rats, gavage once a day for three days, lung lavage solution. The procedure:
The experiment purpose was to assess the drug efficacy of the test compound in OVA (ovalbumin)-induced asthmatic model in rats.
Grouping the animal randomly to control group, model group and administered group. At the first, second and third day, the control group was administered with 1 mL of PBS (phosphate buffer solution) by intraperitoneal injection, and the model group and administered group were administered with a sensitization solution (prepared by mixing 6 mL of 1% OVA in phosphate buffer solution and 54 mL of alum solution at a ratio of 1:9) by intraperitoneal injection per day (1 mL per rat).
From the nineteenth day, the administered group was administered with the test compound at a certain dose by gavage, and the control group and model group was administered with the menstruum at a corresponding dose by gavage, once a day for three days. After 1 hour of administering each day, attacking the model group and administered group with 1% OVA in phosphate buffer solution and the control group with phosphate buffer solution for 20 min.
At the twenty-third day, the animals were anesthetized with 1% pentobarbital sodium (60 mg/Kg) by intraperitoneal injection. The blood samples were collected from aorta abdominalis under pentobarbital sodium anaesthesia into EDTA-K2 tubes. After tracheal intubation was performed, the lung of the animals were lavaged with 3 mL of PBS containing 1% FBS (Fetal Bovine Serum) once, and then lavaged with 5 mL of PBS containing 1% FBS at least two times; the volume of the combined lavage solutions were adjusted to 15 mL. The total cells in the lavage solution were counted by using a hemacytometer and a Trypan blue staining method and then white blood cells in the lavage solution were counted differentially.

Consider eight compounds from patent US9951010B2, “Compounds as CRTH2 antagonist and uses thereof” (SUNSHINE LAKE PHARMA CO., LTD., priority 2014, dated 2018).

What is called IC50 is the concentration that inhibits the measured activity by half. The term AUC(0-inf) denotes the area under the concentration-time curve extrapolated to infinity. The term AUC(0-t) denotes the area under the concentration-time curve up to a stated or last time point. By Cmax is commonly meant the maximum level reached in the sampled fluid or tissue. The half-life is the time needed for the level to fall by half in the phase considered.

Structures can show the parent of a compound that is named as a salt.

In the case of `Cc1c(C2CCN(S(=O)(=O)c3ccc(F)cc3)CC2)c2cc(F)ccc2n1CC(=O)O` [Crystalline form I, 2-(5-fluoro-3-(1-((4-fluorophenyl)sulfonyl)piperidin-4-yl)-2-methyl-1H-indol-1-yl)acetic acid], in data set [1] (RH 80%), the “Weigh increase rate % under RH 80%” value is recorded as 0.293%. Moreover, the “Weigh increase rate % under RH 95%” value in data set [1] (RH 95%) is 0.499%.

`Cc1c(C2CCN(S(=O)(=O)c3ccc(F)cc3F)CC2)c2cc(F)ccc2n1CC(=O)O` [Example 33, 2-(5-fluoro-3-(1-((2,4-difluorophenyl)sulfonyl)piperidin-4-yl)-2-methyl-1H-indol-1-yl)acetic acid] returned an IC50 at CRTH2 receptor of 80.4 nM. In the data set “Detection of PK in rats” (iv, 0.4 mg/Kg), this compound gave an AUC(0-inf) of 2500 ng·h/mL, an AUC(0-t) of 2440 ng·h/mL, a Cmax of 1300 ng/mL and a half-life of 4.5 h. In “Detection of PK in rats” (po, p.o. (gavage), 1 mg/Kg), this compound had an AUC(0-inf) of 4270 ng·h/mL, an AUC(0-t) of 4090 ng·h/mL, a Cmax of 1960 ng/mL and a half-life of 4.52 h.

Turning to `Cc1c(C2CCC(NS(=O)(=O)c3ccc(F)cc3)CC2)c2cc(F)ccc2n1CC(=O)O` (single isomer, unassigned) [Example 27b, 2-(5-fluoro-3-(4-(4-fluorophenylsulfonamido)cyclohexyl)-2-methyl-1H-indol-1-yl)acetic acid], the IC50 on CRTH2 receptor worked out at 57.3 nM. In the data set “Detection of PK in rats” (iv, 0.4 mg/Kg), this compound had an AUC(0-inf) of 920 ng·h/mL, an AUC(0-t) of 883 ng·h/mL, a Cmax of 802 ng/mL and a half-life of 1.58 h. In “Detection of PK in rats” (po, p.o. (gavage), 1 mg/Kg), the AUC(0-inf) was determined as 1640 ng·h/mL, the exposure AUC(0-t) was 1600 ng·h/mL, the concentration peaked (Cmax) at 631 ng/mL and the half-life is 1.33 h. In data set [2], the “inhibitory effects on the total number of white blood cells and the number of eosinophilic granulocytes” value was “stronger than those of OC000459”; the “Eosinophilic granulocyte C (10^5/ml)” value is on record as 0.09597 ± 0.04^## 10^5/ml; the “Eosinophilic granulocyte Inhibition rate” value amounted to 76.76%; the “The total number of white blood cells” value is recorded as 1.986 ± 0.28. Further, in data set [3], the “Eosinophilic granulocyte Inhibition ratio” value worked out at 38.55%, the “Eosinophilic granulocyte Number (×10^5/mL)” value is 142.17 ×10^5/mL and the “Total number of white cells (×10^5/mL)” value is 277.800 ×10^5/mL.

Take `Cc1c(Cc2ccc3ccccc3n2)c2cc(F)ccc2n1CC(=O)O` [OC000459, reference compound]: in data set [2], the “Eosinophilic granulocyte C (10^5/ml)” value is recorded as 0.1192 ± 0.03^## 10^5/ml, the “Eosinophilic granulocyte Inhibition rate” value was 70.77% and the “The total number of white blood cells” value is 2.427 ± 0.25.

With `Cc1c(C2CCC(NC(=O)c3ccc4ccccc4n3)CC2)c2cc(F)ccc2n1CC(=O)O.Cl` (single isomer, unassigned) [Example 6a, 2-(5-fluoro-2-methyl-3-(4-(quinoline-2-carboxamido)cyclohexyl)-1H-indol-1-yl)acetic acid hydrochloride], on CRTH2 receptor, the IC50 was 200 nM. In the data set “Detection of PK in rats” (iv, 0.4 mg/Kg), this compound gave an AUC(0-inf) of 2780 ng·h/mL, an AUC(0-t) of 2680 ng·h/mL, a Cmax of 2020 ng/mL and a half-life of 1.57 h. Besides, in the data set “Detection of PK in rats” (po, p.o. (gavage), 1 mg/Kg), the AUC(0-inf) came out at 5940 ng·h/mL, the AUC(0-t) came out at 5670 ng·h/mL, the concentration peaked (Cmax) at 2110 ng/mL and the half-life was 2.86 h. For the same compound, in data set [2], the “inhibitory effects on the total number of white blood cells and the number of eosinophilic granulocytes” value is “stronger than those of OC000459”; the “Eosinophilic granulocyte C (10^5/ml)” value is 0.0568 ± 0.02^## 10^5/ml; the “Eosinophilic granulocyte Inhibition rate” value is 86.85%; the “The total number of white blood cells” value amounted to 1.634 ± 0.30. Also, in data set [3], the “Eosinophilic granulocyte Inhibition ratio” value turned out to be 33%, the “Eosinophilic granulocyte Number (×10^5/mL)” value is reported as 153.75 ×10^5/mL and the “Total number of white cells (×10^5/mL)” value is 247.350 ×10^5/mL.

`Cc1c(C2CCN(C(=O)c3ccc4ccccc4n3)CC2)c2cc(F)ccc2n1CC(=O)O` [Example 4, 2-(5-fluoro-2-methyl-3-(1-(quinoline-2-carbonyl)piperidin-4-yl)-1H-indol-1-yl)acetic acid hydrochloride] registered an IC50 on CRTH2 receptor of 306 nM.

At CRTH2 receptor, `O=C(O)Cn1cc(C2CCN(S(=O)(=O)c3ccc(F)cc3)CC2)c2ccccc21` [Control compound, reference compound] displayed an IC50 of 6190 nM.

Regarding `Cc1c(C2CC(NS(=O)(=O)c3ccc(F)cc3)C2)c2cc(F)ccc2n1CC(=O)O` (stereo not shown) [Example 32, 2-(5-fluoro-3-(3-(4-fluorophenylsulfonamido)cyclobutyl)-2-methyl-1H-indol-1-yl)acetic acid], the IC50 on CRTH2 receptor was found to be 33.7 nM.
